In PubChem BioAssay (NCI) one finds GI50 and TGI data, which are given here for 9 compounds.

Test in all cases: DTP human tumour cell line panel, 48 h
The test system of test [1] is HCT-116 colon.
The subject of test [2] is HCC-2998 colon.
Test [3] concerns T-47D breast.
Test [4] relates to NCI-H460 lung.
Test [5] concerns MALME-3M melanoma.
The subject of test [6] is OVCAR-8 ovarian.
The test system of test [7] is A498 renal.
Test [8] relates to RPMI-8226 leukemia.
Test [9] has as its system HT29 colon.
The subject of test [10] is RXF 393 renal.

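Interpolation was linear, between the two tested concentrations surrounding the appropriate level; five concentrations were tested over 48 hours in 96-well plates. At the GI50, growth is halved. TGI denotes the concentration required for complete inhibition of growth.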

For the compound `N#Cc1ccc(OC(=O)Nc2ccc(Cl)c(Cl)c2)cc1`, the GI50 is 3.4 µM in [1]; 4.79 µM in [2]; 3.15 µM in test [3]; 2.87 µM in test [4]; 3.81 µM in [5]; 3.3 µM in test [6]. The GI50 is 1.44 µM in test [7], 2.43 µM in test [8], 3.35 µM in test [9] and 7.3 µM in test [10]. Also, the TGI in test [1] was over 100 µM; in test [2], 26.5 µM; in test [3], 12.8 µM; in [4], 9.34 µM; in [5], 20.6 µM; in test [6] it was 44.8 µM. For the same compound, the total growth inhibition concentration (TGI) was determined as 6.92 µM in test [7], 6.77 µM in [8], 28.6 µM in test [9] and 42.2 µM in test [10].

As for `Nc1ccccc1SC1CC(=O)N(c2ccc(Cl)c(Cl)c2)C1=O` (stereo not given), the GI50 is 24.2 µM in test [1]; 59.6 µM in test [2]; 12.6 µM in test [3]; 32 µM in test [4]; 15.6 µM in test [5]; 20 µM in [6]. The GI50 is 4.88 µM in test [7], 10.6 µM in [8], 42.1 µM in [9] and 14.2 µM in test [10]. Also, the total growth inhibition concentration (TGI) in test [1] is over 100 µM; in test [2], over 100 µM; in test [3], over 100 µM; in [4], over 100 µM; in [5] it was over 100 µM; in [6], 77.8 µM. The TGI in [7] is 37.2 µM; in test [8] it was over 100 µM; in [9] it was over 100 µM; in test [10], 42.8 µM.

Turning to `CC1=CC(=O)C(C(O)(C(F)(F)F)C(F)(F)F)C(C)(C)C1` (stereo not given), the TGI in test [1], in [2], in [3], in [4], in test [5] and in test [6] was over 10 µM each time. The TGI in test [7], in test [8], in test [9] and in test [10] was over 10 µM throughout.

Take `O=C(OCC(OC(=O)c1ccccc1)C(OC(=O)c1ccccc1)C(OC(=O)c1ccccc1)c1cnn(-c2ccccc2)n1)c1ccccc1` (stereo not given): the TGI in [1], in test [2], in test [3], in [4], in test [5] and in [6] was over 100 µM throughout. For the same compound, the total growth inhibition concentration (TGI) in test [7], in [8], in [9] and in [10] was over 100 µM each time.

For `CCOC(CN(C)C(=S)Nc1cccc2ccccc12)OCC`, the total growth inhibition concentration (TGI) in [1], in test [2], in test [3], in test [4], in test [5] and in [6] was over 10 µM throughout. Moreover, the TGI in test [7], in test [8], in test [9] and in test [10] was over 10 µM each time.

Consider `CC[C@@]1(O)C(=O)OCc2c1cc1n(c2=O)Cc2c-1nc1cc(F)c(C)c3c1c2[C@@H](N)CC3`, for which the 50% growth inhibitory concentration (GI50) in [1] was under 0.01 µM; in [2], 0.0314 µM; in [3], under 0.01 µM; in test [4], under 0.01 µM; in [5], under 0.014 µM; in test [6] it was under 0.01 µM. The 50% growth inhibitory concentration (GI50) is under 0.01 µM in test [7], 0.0109 µM in test [8], under 0.01 µM in [9] and under 0.01 µM in test [10]. The TGI in test [1] was 12.3 µM; in test [2], 0.665 µM; in test [3], over 100 µM; in [4], over 33.7 µM; in test [5], 0.281 µM; in [6], over 100 µM. The total growth inhibition concentration (TGI) in test [7] was 0.0221 µM; in [8] it was 1.58 µM; in test [9], over 100 µM; in test [10], 0.0254 µM.

As to `Cn1c(=O)c2c(ncn2CC(=O)Nc2ccc(-c3ccccc3)nn2)n(C)c1=O`, the GI50 in test [1] was over 100 µM; in test [2], over 100 µM; in test [3], 75.6 µM; in test [4] it was over 100 µM; in test [5], over 100 µM; in [6], over 100 µM. In addition, the GI50 is 54.1 µM in test [7], over 100 µM in [8], over 100 µM in test [9] and 48.3 µM in [10]. Moreover, the TGI in test [1], in test [2], in [3], in test [4], in test [5] and in [6] was over 100 µM each time. In addition, the TGI in test [7], in test [8], in test [9] and in test [10] was over 100 µM throughout.

Turning to `COC(=O)CCC1=C(CC(=O)OC)C(C)=N/C1=C\c1[nH]c(-c2ccc[nH]2)cc1OC`, the GI50 in test [1] was 1.36 µM; in test [2], 3.46 µM; in test [3], 3.55 µM; in test [4] it was 3.72 µM; in [5] it was 6.8 µM; in test [6], 2.92 µM. Further, the GI50 is 10.6 µM in test [7], 1.44 µM in test [8], 0.557 µM in test [9] and 2.15 µM in [10]. Further, the total growth inhibition concentration (TGI) in test [1] is 11.5 µM; in test [2] it was 15.6 µM; in test [3], 16.3 µM; in [4], 13.7 µM; in test [5] it was 23.3 µM; in [6] it was 11.4 µM. Besides, the TGI in test [7] turned out to be 23.9 µM; in test [8], 4.91 µM; in [9], 10.3 µM; in [10], 9.56 µM.

As for `C=C1CC[C@@H](C(C)C)C[C@@H]2[C@H]([C@H](O)C[C@]2(C)O)[C@@]2(C)CC[C@@H]1O2`, the GI50 in test [1] is 16.7 µM; in [2], 13.9 µM; in [3] it was 14.9 µM; in [4], 16.4 µM; in test [5], 14.1 µM; in test [6] it was 21.4 µM. For the same compound, the GI50 in test [7] was 26 µM; in test [8], 3.38 µM; in test [9] it was 11.8 µM; in test [10] it was 19.6 µM. Also, the total growth inhibition concentration (TGI) in test [1] was determined as 30.3 µM; in [2], 26.9 µM; in test [3], 33.1 µM; in test [4], 29.9 µM; in test [5], 28.6 µM; in test [6] it was 46.4 µM. Moreover, the TGI was 42.9 µM in test [7], 17.2 µM in test [8], 26.5 µM in test [9] and 34.1 µM in test [10].
